In US11415579B2, “Assay for measuring a rate of reaction between a target and a ligand candidate” (Imperial College Innovations Ltd., priority 2016, dated 2022):

Columns and labels:
Cdk2(T182C) (C177A) = molecular target: T1, Cdk2(T182C) (C177A) (Homo sapiens, UniProt P24941, C177A/T182C); assay: Kinetic thiol consumption assay with Cdk2 mutant T182C; assay type: binding; parameters: key to Rate enhancement, Cdk2 T182C: rate constant with Cdk2 ÷ rate constant with model thiol (fold); details: additional mutation C177A; for Rate constant with Cdk2 T182C: Protein: Cdk2, cysteine position T182C, in h^-1
T1 construct: poly-histidine; made in house; host or cells: E. coli
Procedure, shortened: (§1)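 Thiol consumption was monitored kinetically using 5 μM Cdk2 (C177A plus one introduced cysteine) in degassed phosphate buffer at pH 8 with TCEP beads. Plates were kept 1 h at room temperature before fluorescence reading, and rate constants came from exponential decay fitting.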

Cdk2(H71C) (C177A) = molecular target: T2, Cdk2(H71C) (C177A) (Homo sapiens, UniProt P24941, C177A/H71C); assay: Kinetic thiol consumption assay with Cdk2 mutant H71C; assay type: binding; parameters: key to Rate enhancement, Cdk2 H71C: rate constant with Cdk2 ÷ rate constant with model thiol (fold); details: additional mutation C177A; for Rate constant with Cdk2 H71C: Protein: Cdk2, cysteine position H71C, in h^-1
T2 construct: poly-histidine; made in house; host or cells: E. coli
Procedure, shortened: as §1

Cdk2[C177A, F80C, K278C] = molecular target: T3, Cdk2[C177A, F80C, K278C] (Homo sapiens, UniProt P24941, C177A/F80C/K278C); assay: Kinetic thiol consumption assay with mutant Cdk2 as model thiol; assay type: binding; parameters: unit not given here; details: 500 μM ligand, 5 μM thiol, phosphate buffer pH 8
T3 construct: poly-histidine; made in house; host or cells: E. coli
Procedure, shortened: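 First-order rate constants were derived by exponential-decay fitting of DMSO/thiol-normalized fluorescence (380/470 nm) over time at room temperature. Thiol was 5 μM E. coli-expressed His-tagged Cdk2 mutant C177A/F80C/K278C in degassed pH 8 phosphate buffer containing 2% v/v TCEP beads.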

Cdk2(C177A, F80C) = molecular target: T4, Cdk2(C177A, F80C) (Homo sapiens, UniProt P24941, C177A/F80C); assay: Kinetic thiol consumption assay with Cdk2 mutant F80C, incl. kobs versus concentration (Kd, k2); assay type: binding; parameters: key to Rate enhancement, Cdk2 F80C: Cdk2 rate constant divided by model-thiol rate constant; details: additional mutation C177A; for Rate constant with Cdk2 F80C: Protein: Cdk2, cysteine position F80C, in h^-1
T4 construct: poly-histidine; made in house; host or cells: E. coli
Procedure, shortened: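 His-tagged Cdk2(C177A/F80C) from E. coli or model thiol, 5 μM in degassed phosphate buffer pH 8 with TCEP beads, reacted with acrylamide ligands; fluorescence (ex/em 380/470 nm) normalized to DMSO control and fitted to first-order decay for kobs. Kd and k2 obtained from hyperbolic fit of kobs versus ligand concentration.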

[1] = molecular target: T5, human cyclin-dependent kinase 2 (Cdk2) (Homo sapiens, UniProt P24941); assay: Kinetic thiol consumption assay with wild type Cdk2 (C177); assay type: binding; parameters: key to Rate enhancement, Cdk2 WT: k(Cdk2) divided by k(model thiol); Rate constant with Cdk2 (k(Cdk2)): unit not given here; details: for Rate constant with Cdk2 (k(Cdk2)): 500 μM ligand, 5 μM thiol, phosphate buffer pH 8; for Rate enhancement, Cdk2 WT: no additional mutations; for Rate constant with Cdk2 WT: Protein: Cdk2, cysteine position WT, in h^-1; for k(Cdk2)/k(Cdk2_mut) rate enhancement: model thiol Cdk2[C177A, F80C, K278C]; for k(Cdk2)/k(GSH) rate enhancement: model thiol glutathione
T5 construct: poly-histidine; made in house; host or cells: E. coli
Procedure, shortened: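 Thiol 5 μM (Cdk2 or model thiol), degassed phosphate buffer pH 8, TCEP beads 2% v/v. Plates incubated 1 h RT, ex/em 380/470 nm. First-order decay fit → rate constant; ratio Cdk2/model thiol = rate enhancement.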

Cdk2(S181C) (C177A) = molecular target: T6, Cdk2(S181C) (C177A) (Homo sapiens, UniProt P24941, C177A/S181C); assay: Kinetic thiol consumption assay with Cdk2 mutant S181C; assay type: binding; parameters: key to Rate enhancement, Cdk2 S181C: rate constant with Cdk2 ÷ rate constant with model thiol (fold); details: additional mutation C177A; for Rate constant with Cdk2 S181C: Protein: Cdk2, cysteine position S181C, in h^-1
T6 construct: poly-histidine; made in house; host or cells: E. coli
Procedure, shortened: as §1

Cdk2(R122C) (C177A) = molecular target: T7, Cdk2(R122C) (C177A) (Homo sapiens, UniProt P24941, C177A/R122C); assay: Kinetic thiol consumption assay with Cdk2 mutant R122C; assay type: binding; parameters: key to Rate enhancement, Cdk2 R122C: rate constant with Cdk2 ÷ rate constant with model thiol (fold); details: additional mutation C177A; for Rate constant with Cdk2 R122C: Protein: Cdk2, cysteine position R122C, in h-1
T7 construct: poly-histidine; made in house; host or cells: E. coli
Procedure, shortened: as §1

[2] = Kinetic thiol consumption assay with model thiol glutathione; assay type: physicochemical; parameters: Rate constant with glutathione (k(GSH)): unit not given here; details: for Rate constant with glutathione (k(GSH)): 500 μM ligand, 5 μM thiol, phosphate buffer pH 8; for Rate constant with Glutathione: Protein: Glutathione, cysteine position NA, in h-1
Procedure, shortened: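 First, 5 μM glutathione in degassed phosphate buffer (pH 8) receives immobilized TCEP beads (2% v/v). Then acrylamide is added and plates incubate 1 h at room temperature. Finally, fluorescence (380/470 nm) is normalized and fitted to first-order decay for rate constants.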

Cdk2(N272C) (C177A) = molecular target: T8, Cdk2(N272C) (C177A) (Homo sapiens, UniProt P24941, C177A/N272C); assay: Kinetic thiol consumption assay with Cdk2 mutant N272C; assay type: binding; parameters: key to Rate enhancement, Cdk2 N272: rate constant with Cdk2 ÷ rate constant with model thiol (fold); details: for Rate enhancement, Cdk2 N272: Cdk2 N272, additional mutation C177A; for Rate constant with Cdk2 N272C: Protein: Cdk2, cysteine position N272C, additional mutation C177A, in h^-1
T8 construct: poly-histidine; made in house; host or cells: E. coli
Procedure, shortened: as §1

Cdk2(S276C) (C177A) = molecular target: T9, Cdk2(S276C) (C177A) (Homo sapiens, UniProt P24941, C177A/S276C); assay: Kinetic thiol consumption assay with Cdk2 mutant S276C; assay type: binding; parameters: key to Rate enhancement, Cdk2 S276C: rate constant with Cdk2 ÷ rate constant with model thiol (fold); details: additional mutation C177A; for Rate constant with Cdk2 S276C: Protein: Cdk2, cysteine position S276C, in h^-1
T9 construct: poly-histidine; made in house; host or cells: E. coli
Procedure, shortened: as §1

Row | SMILES | Rate enhancement, Cdk2 T182C (Cdk2(T182C) (C177A)) | Rate constant with Cdk2 T182C (Cdk2(T182C) (C177A)) | Rate enhancement, Cdk2 H71C (Cdk2(H71C) (C177A)) | Rate constant with Cdk2 H71C (Cdk2(H71C) (C177A)) | Rate constant with Cdk2[C177A, F80C, K278C] (k(Cdk2_mut)) (Cdk2[C177A, F80C, K278C]) | Rate enhancement, Cdk2 F80C (Cdk2(C177A, F80C)) | Rate constant with Cdk2 F80C (Cdk2(C177A, F80C)) | Rate constant with Cdk2 (k(Cdk2)) [1] | Rate enhancement, Cdk2 WT [1] | Rate constant with Cdk2 WT [1] | k(Cdk2)/k(Cdk2_mut) rate enhancement [1] | k(Cdk2)/k(GSH) rate enhancement [1] | Rate enhancement, Cdk2 S181C (Cdk2(S181C) (C177A)) | Rate constant with Cdk2 S181C (Cdk2(S181C) (C177A)) | Rate enhancement, Cdk2 R122C (Cdk2(R122C) (C177A)) | Rate constant with Cdk2 R122C (Cdk2(R122C) (C177A)) | Rate constant with glutathione (k(GSH)) [2] | Rate constant with Glutathione [2] | Rate enhancement, Cdk2 N272 (Cdk2(N272C) (C177A)) | Rate constant with Cdk2 N272C (Cdk2(N272C) (C177A)) | further results
1 | C=CC(=O)NC1(c2noc(C)n2)CCCCCC1 [CA-162] | 6.607 | 0.3922 | 0.4092 | 0.02429 | 0.00171 | 0.05133 | 0.003047 | 0.02529 | 0.5566 | 0.03304 | 14.75 | 0.9863 | 0.1273 | 0.007555 | 0.1023 | 0.006071 | 0.02564 | 0.05936 | 0.3725 | 0.02211 | Rate enhancement, Cdk2 S276C (Cdk2(S276C) (C177A)): 1.07; Rate constant with Cdk2 S276C (Cdk2(S276C) (C177A)): 0.06352
2 | C=CC(=O)Nc1cccc(C(=O)c2ccccc2)c1 [CA-218] | 9.969 | 0.1279 | 0.809 | 0.01038 | 0.1192 | 11.9 | 0.1527 | 0.03272 | 2.55 | 0.03272 | 0.2745 | 2.536 | 1.116 | 0.01432 | 0.6834 | 0.008768 | 0.0129 | 0.01283 | 0.3525 | 0.004522 | Rate enhancement, Cdk2 S276C (Cdk2(S276C) (C177A)): 2.167; Rate constant with Cdk2 S276C (Cdk2(S276C) (C177A)): 0.0278
3 | C=CC(=O)NC(C)c1cc(OC)c(OC)c(OC)c1 (centres unmarked) [EL-1101] | 1.305 | 0.009691 | 0.8384 | 0.006227 | 0.00226 | 0.3417 | 0.002538 | 0.00341 | 0.4606 | 0.003421 | 1.51 | 0.4373 | 0.396 | 0.002941 | 0.3078 | 0.002286 | 0.0078 | 0.007427 | 0.6801 | 0.005051 | Rate enhancement, Cdk2 S276C (Cdk2(S276C) (C177A)): 0.9981; Rate constant with Cdk2 S276C (Cdk2(S276C) (C177A)): 0.007413
4 | C=CC(=O)Nc1ccc2nc(C)[nH]c2c1 [EL-1109] | 5.286 | 0.04531 | 0.5644 | 0.004838 | 0.00922 | 1.94 | 0.01663 | 0.00827 | 0.9701 | 0.008316 | 0.8966 | 0.9595 | 1.588 | 0.01361 | 0.7255 | 0.006219 | 0.00862 | 0.008572 | 0.3872 | 0.003319 | Rate enhancement, Cdk2 S276C (Cdk2(S276C) (C177A)): 0.9188; Rate constant with Cdk2 S276C (Cdk2(S276C) (C177A)): 0.007876
5 | C=CC(=O)Nc1ccc(C(=O)OC)cc1 [CA-028] | 5.246 | 0.3207 | 1.035 | 0.06327 | 0.3138 | 1.175 | 0.07185 | 0.1733 | 2.835 | 0.1733 | 0.5523 | 2.895 | 0.5066 | 0.03097 | 0.3475 | 0.02124 | 0.05986 | 0.06113 | 0.7612 | 0.04653 | Rate enhancement, Cdk2 S276C (Cdk2(S276C) (C177A)): 1.04; Rate constant with Cdk2 S276C (Cdk2(S276C) (C177A)): 0.06356
